Calls of active or inactive are those of the source. The rule behind the calls is not given here.
Each molecule was assayed on Candida albicans (assay: Antifungal activity against Candida albicans).
Assay type: functional, organism-based

Structure (SMILES)	Activity
CC/C=C\C/C=C/C=C/CCCCCC[C@@]1(C)C[C@](C)(CC(=O)OC)OO1 (relative stereo)	inactive
CC/C=C\C/C=C/C=C/CCCCCC[C@@]1(C)C[C@](C)(CC(=O)O)OO1 (relative stereo)	inactive
C[C@@]1(CCCCCCCCCCc2ccccc2)C[C@]2(C)OC(=O)C[C@@H]2OO1	inactive
CCC(C)CCCCCC/C=C\CC/C=C\CCCC(=O)OC (centres undefined)	inactive
